What was measured:
Assay in all cases: relative viability (nuclei count vs DMSO), 5 days (fraction); higher = more cells survive
RU-SKI 43 + Bortezomib = compound: CC[C@@H](C)CNCC(=O)N1CCC2=C([C@@H]1COC3=CC=CC(=C3)C)C=CS2 [RU-SKI 43] + CC(C)C[C@H](NC(=O)[C@H](Cc1ccccc1)NC(=O)c1cnccn1)B(O)O [Bortezomib] (partner 0.002 µM)
How it was run: (§1)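 Relative viability equals treated-well nuclei counts divided by vehicle-well nuclei counts. Counts came from 4× images of lung cancer cell lines grown in 1536-well plates for 5 days after pin-tool dosing on the day after seeding. Dosing used one drug alone or a fixed anchor-drug dose plus five library-drug doses (not always all listed) in √10 steps, and values are medians of duplicate plates.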

RU-SKI 43 + Linsitinib = compound: CC[C@@H](C)CNCC(=O)N1CCC2=C([C@@H]1COC3=CC=CC(=C3)C)C=CS2 [RU-SKI 43] + C[C@]1(O)C[C@@H](c2nc(-c3ccc4ccc(-c5ccccc5)nc4c3)c3c(N)nccn32)C1 [Linsitinib] (partner 1 µM)
How it was run: as §1

RU-SKI 43 + Phenformin = compound: CC[C@@H](C)CNCC(=O)N1CCC2=C([C@@H]1COC3=CC=CC(=C3)C)C=CS2 [RU-SKI 43] + N=C(N)NC(=N)NCCc1ccccc1 [Phenformin] (partner 250 µM)
How it was run: as §1

MK-8033 + Dasatinib = compound: Cn1cc(-c2cnc3ccc4ccc(CS(=O)(=O)NCc5ccccn5)cc4c(=O)c3c2)cn1 [MK-8033] + Cc1nc(Nc2ncc(C(=O)Nc3c(C)cccc3Cl)s2)cc(N2CCN(CCO)CC2)n1 [Dasatinib] (partner 0.075 µM)
How it was run: as §1

Cell Line	relative viability (RU-SKI 43 + Bortezomib; first compound 0.1 µM)	relative viability (RU-SKI 43 + Bortezomib; first compound 0.3162 µM)	relative viability (RU-SKI 43 + Bortezomib; first compound 1 µM)	relative viability (RU-SKI 43 + Bortezomib; first compound 3.162 µM)	relative viability (RU-SKI 43 + Bortezomib; first compound 10 µM)	relative viability (RU-SKI 43 + Linsitinib; first compound 0.1 µM)	relative viability (RU-SKI 43 + Linsitinib; first compound 0.3162 µM)	relative viability (RU-SKI 43 + Linsitinib; first compound 1 µM)	relative viability (RU-SKI 43 + Linsitinib; first compound 3.162 µM)	relative viability (RU-SKI 43 + Linsitinib; first compound 10 µM)	relative viability (RU-SKI 43 + Phenformin; first compound 0.1 µM)	relative viability (RU-SKI 43 + Phenformin; first compound 0.3162 µM)	relative viability (RU-SKI 43 + Phenformin; first compound 1 µM)	relative viability (RU-SKI 43 + Phenformin; first compound 3.162 µM)	relative viability (RU-SKI 43 + Phenformin; first compound 10 µM)	relative viability (MK-8033 + Dasatinib; first compound 0.02 µM)	relative viability (MK-8033 + Dasatinib; first compound 0.06325 µM)	relative viability (MK-8033 + Dasatinib; first compound 0.2 µM)	relative viability (MK-8033 + Dasatinib; first compound 0.6325 µM)	relative viability (MK-8033 + Dasatinib; first compound 2 µM)
PC-3 [JPC-3]	0.848	0.747	0.82	0.881	0.827	0.885	0.956	1.03	1.02	0.866	0.466	0.484	0.457	0.52	0.511	0.935	0.939	0.948	1.02	0.966
NCI-H2009	1.05	1.02	1.01	1.12	0.968	1.2	1.23	1.24	1.21	1.16	0.49	0.514	0.519	0.474	0.424	0.299	0.329	0.308	0.232	0.279
HCC-366	1.11	1.39	1.24	1.24	1.07	0.604	1.83	0.694	0.608	0.592	0.616	0.676	0.652	0.582	0.453	0.617	0.638	0.564	0.634	0.651
HARA	1.22	1.19	1.13	1.18	1.14	1.03	1.02	1.09	1.05	0.851	0.531	0.471	0.491	0.457	0.408	0.28	0.255	0.223	0.188	0.258
NCI-H1792	0.961	1.29	1.31	1.03	0.941	0.46	0.601	0.596	0.585	0.538	0.267		0.4		0.227	0.768	0.834	0.752	0.57	0.569
HCC-827	0.989	1.07	1.18	1.11	1.02	0.96	0.936	1.04	1.02	0.734	0.421	0.422	0.372	0.46	0.359	0.334	0.114	0.342	0.283	0.304
LXF-289	1.06	0.977	1.03	1.06	0.974	0.982	1.01	0.96	0.983	0.956	0.53	0.551	0.574	0.548	0.514	0.197	0.213	0.208	0.189	0.215
NCI-H460	1.23	1.8	1.53	1.25	1.03	0.789	1.84	1.08	1.02	0.695	0.534	0.973	0.788	0.575	0.467	0.481	0.409	0.48	0.501	0.484

From the supplement of paper PMC10307832
